Where two headings read alike, the source gives them in different places.
Assays:
[1] = tested on: H3K27me3 mark in HeLa cells (EZH2); test: H3K27me3 Alpha Hela Assay (AlphaLISA); type: cell-based
Summary of the method: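 HeLa cells (1,000/well) treated with ten 3-fold compound doses for 72 h at 37 °C; lysates extracted and H3K27me3 detected by AlphaLISA with anti-K27me3 acceptor beads, biotinylated anti-H3 (3 nM) and streptavidin donor beads. EC50 from DMSO-normalized dose-response curves; duplicate plate assessed viability.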

PRC2 containing wt EZH2 [2] = molecular target: T1, PRC2 containing wt EZH2 (Homo sapiens (Human), UniProt Q15910); test: EZH2 residence time assay (100-fold dilution of pre-formed enzyme-inhibitor complex); type: biochemical
T1 sequence (Q15910 whole entry): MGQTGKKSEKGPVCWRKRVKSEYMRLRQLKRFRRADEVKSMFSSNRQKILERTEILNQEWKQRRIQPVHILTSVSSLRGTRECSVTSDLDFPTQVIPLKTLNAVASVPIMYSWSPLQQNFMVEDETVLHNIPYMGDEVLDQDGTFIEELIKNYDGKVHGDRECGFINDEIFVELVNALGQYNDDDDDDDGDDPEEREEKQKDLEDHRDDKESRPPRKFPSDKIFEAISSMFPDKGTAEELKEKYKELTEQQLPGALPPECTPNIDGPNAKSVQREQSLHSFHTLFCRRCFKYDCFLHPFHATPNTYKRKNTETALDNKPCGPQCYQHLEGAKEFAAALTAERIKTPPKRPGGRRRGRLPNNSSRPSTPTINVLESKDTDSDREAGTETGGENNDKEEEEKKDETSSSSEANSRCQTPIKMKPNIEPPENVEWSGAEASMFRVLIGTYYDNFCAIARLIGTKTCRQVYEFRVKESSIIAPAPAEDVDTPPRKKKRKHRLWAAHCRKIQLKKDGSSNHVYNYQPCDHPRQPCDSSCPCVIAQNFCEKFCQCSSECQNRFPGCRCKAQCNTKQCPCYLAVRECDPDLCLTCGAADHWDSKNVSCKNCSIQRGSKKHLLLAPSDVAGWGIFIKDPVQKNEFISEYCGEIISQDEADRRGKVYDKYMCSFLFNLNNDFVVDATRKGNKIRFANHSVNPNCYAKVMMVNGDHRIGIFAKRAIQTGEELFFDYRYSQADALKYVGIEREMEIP
T1 sequence (O75530 whole entry partner): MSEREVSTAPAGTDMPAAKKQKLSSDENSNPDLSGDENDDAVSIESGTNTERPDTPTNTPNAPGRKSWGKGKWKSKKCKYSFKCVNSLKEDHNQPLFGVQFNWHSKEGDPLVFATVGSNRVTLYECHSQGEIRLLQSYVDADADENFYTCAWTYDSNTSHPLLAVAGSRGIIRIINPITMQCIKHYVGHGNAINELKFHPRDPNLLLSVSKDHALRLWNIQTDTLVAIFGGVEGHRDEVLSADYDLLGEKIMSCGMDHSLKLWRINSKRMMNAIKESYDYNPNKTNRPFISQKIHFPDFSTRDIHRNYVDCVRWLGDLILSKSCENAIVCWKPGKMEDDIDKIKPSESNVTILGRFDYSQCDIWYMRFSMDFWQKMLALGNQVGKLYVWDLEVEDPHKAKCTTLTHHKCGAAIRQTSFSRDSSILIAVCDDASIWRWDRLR
T1 sequence (Q15022 whole entry partner): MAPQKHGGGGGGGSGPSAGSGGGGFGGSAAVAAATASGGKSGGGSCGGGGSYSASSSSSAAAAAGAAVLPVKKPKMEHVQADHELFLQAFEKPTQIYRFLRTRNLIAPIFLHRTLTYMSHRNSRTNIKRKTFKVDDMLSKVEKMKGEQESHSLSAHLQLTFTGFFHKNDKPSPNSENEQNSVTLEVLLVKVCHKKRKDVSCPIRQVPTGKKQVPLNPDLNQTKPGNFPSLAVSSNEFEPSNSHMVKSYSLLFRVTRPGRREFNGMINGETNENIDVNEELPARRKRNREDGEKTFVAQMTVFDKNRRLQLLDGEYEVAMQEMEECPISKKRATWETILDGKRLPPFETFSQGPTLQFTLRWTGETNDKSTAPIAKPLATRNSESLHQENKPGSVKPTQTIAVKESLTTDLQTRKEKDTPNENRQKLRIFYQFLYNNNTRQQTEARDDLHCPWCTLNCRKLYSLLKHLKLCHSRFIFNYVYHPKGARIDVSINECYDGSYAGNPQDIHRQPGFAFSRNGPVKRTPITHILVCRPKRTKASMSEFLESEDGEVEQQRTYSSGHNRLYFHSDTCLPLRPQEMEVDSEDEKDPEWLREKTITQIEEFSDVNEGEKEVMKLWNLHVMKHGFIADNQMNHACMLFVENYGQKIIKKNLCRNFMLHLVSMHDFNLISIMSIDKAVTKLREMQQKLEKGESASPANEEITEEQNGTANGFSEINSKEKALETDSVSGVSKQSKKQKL
T1 sequence (Q09028 whole entry partner): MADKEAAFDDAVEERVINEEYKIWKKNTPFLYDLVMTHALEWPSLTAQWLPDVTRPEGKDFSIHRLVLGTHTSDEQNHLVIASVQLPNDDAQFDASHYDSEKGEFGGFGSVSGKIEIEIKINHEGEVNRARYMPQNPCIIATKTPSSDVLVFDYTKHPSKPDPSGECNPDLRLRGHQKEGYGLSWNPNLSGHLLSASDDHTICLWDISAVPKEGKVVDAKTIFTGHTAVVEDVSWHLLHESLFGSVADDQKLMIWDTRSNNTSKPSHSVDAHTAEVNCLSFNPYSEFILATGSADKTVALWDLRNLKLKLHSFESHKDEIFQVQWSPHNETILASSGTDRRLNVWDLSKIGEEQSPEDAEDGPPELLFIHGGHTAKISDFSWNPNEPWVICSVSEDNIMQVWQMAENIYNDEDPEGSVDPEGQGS
T1 sequence (Q6ZN18 whole entry partner): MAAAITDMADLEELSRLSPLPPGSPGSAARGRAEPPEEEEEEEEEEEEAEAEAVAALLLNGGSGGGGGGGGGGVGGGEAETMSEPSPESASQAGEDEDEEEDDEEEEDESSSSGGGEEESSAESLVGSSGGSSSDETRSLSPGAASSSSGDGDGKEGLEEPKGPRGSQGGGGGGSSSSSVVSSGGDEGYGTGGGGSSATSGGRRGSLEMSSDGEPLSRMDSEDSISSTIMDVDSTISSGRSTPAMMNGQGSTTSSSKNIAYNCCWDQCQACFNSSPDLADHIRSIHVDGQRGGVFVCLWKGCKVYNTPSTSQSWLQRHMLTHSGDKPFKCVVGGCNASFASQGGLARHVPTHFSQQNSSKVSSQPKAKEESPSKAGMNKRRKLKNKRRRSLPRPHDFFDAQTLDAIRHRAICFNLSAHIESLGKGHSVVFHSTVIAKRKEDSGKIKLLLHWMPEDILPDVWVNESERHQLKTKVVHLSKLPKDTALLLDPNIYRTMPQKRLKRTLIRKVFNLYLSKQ
Protocol: EZH2 residence time assay: Compound residence times were assessed by monitoring the recovery of enzyme activity following a 100-fold dilution of pre-formed enzyme-inhibitor complex (dilution reaction), and comparing it to the activity of an undiluted control with the same final concentrations of all reagents (control reaction). Enzyme activity was measured by incorporation of ^3H-SAM into a biotinylated H3 peptide. […] For the control reaction, 0.202 nM PRC2 was pre-incubated with 1 μM activating peptide, 1.01 μM SAM, 1.01 μM ^3H-SAM, and compound at 6.06 times its Ki for 2 h in 138.6 μL of buffer, then the reaction was initiated by the addition of 1.4 μL 500 μM substrate peptide in water. Reactions were quenched at various time points spanning up to 10 hours, by transferring 8 μL aliquots from the reaction vessel to a plate containing 8 μL per well of STOP solution (50 mM Tris pH 8.5, 200 mM EDTA, 2 mM SAH). After the last time point, 12 μL of the quenched solutions were transferred to a streptavidin coated FlashPlate (PerkinElmer) containing 40 μL per well of STOP solution, incubated 1-8 h, washed, and read in a TopCount plate reader (PerkinElmer). A custom script was used to fit control reaction progress data to a straight line and dilution reaction progress data:
Where y is the product formed, t is the reaction time, vi is the initial velocity, vs is the steady state velocity, and kobs is the rate constant for the transition from the initial velocity phase of the curve to the steady state velocity phase of the curve. In fitting the dilution reaction progress data, vs was constrained to the slope of the line fitted to the control reaction progress data. The fitted value of kobs was then transformed into residence time:
Where τ is residence time, Ki is the inhibition constant, [EI] is the calculated equilibrium concentration of enzyme-inhibitor complex, [E] is the calculated equilibrium concentration of free enzyme, and [I] is the calculated equilibrium concentration of free inhibitor.

PRC2 containing wt EZH2 [3] = molecular target: T1, PRC2 containing wt EZH2; test: EZH2 biochemical assay (IC50), 3H-SAM incorporation into biotinylated H3 peptide
Summary of the method: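 Activity was measured as ³H-methyl transfer to a biotinylated H3K27me1 peptide over 18-22 h at room temperature, with capture on streptavidin flash plates. The 30 pM wt-EZH2 PRC2 complex was first pre-incubated 3-5 h with compound, 450 nM SAM/450 nM ³H-SAM and 2 µM H3K27me3 activator (pH 8.5, 0.8% DMSO). Four-parameter fits gave IC50.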

[4] = 30 pM PRC2 containing wt EZH2; 3-5 h pre-incubation; read-out: EZH2 (IC50)
[5] = HeLa cells, 72 hrs, read-out: EZH2 Cell H3K27me3 Alpha HeLa (EC50 K27me3)
[6] = Homo sapiens, HeLa, 72 h, HeLa cells, 72 hrs, read-out: EZH2 Cell H3K27me3 Alpha HeLa (EC50 K27me3)
[7] = EZH2 (IC50), 30 pM PRC2 containing wt EZH2; 3-5 h pre-incubation

Compound | IC50 (PRC2 containing wt EZH2 [3]; [4]) | EC50 [1, 5] | EC50 [1, 6] | IC50 (PRC2 containing wt EZH2 [3]; [7]) | other results
CSc1cc(C)[nH]c(=O)c1CNC(=O)c1c(C)n([C@H](C)C2CCC(NC3(C)CCOC3)CC2)c2ccccc12 (single isomer, unassigned) [drawing 269] |  |  |  |  | EC50 ([1]; HeLa cell assay, Table 3 classes, read-out: EC50 Cellular Activity): 5 to 25 nM; residence time (PRC2 containing wt EZH2 [2]): > 2100 min
CSc1cc(C)[nH]c(=O)c1CNC(=O)c1c(C)n([C@H](C)C2CCC(OC(C)=O)CC2)c2ccccc12 (single isomer, unassigned) [134 (isomer 2)] | < 0.5 nM | < 10 nM |  |  | 
CSc1cc(C)[nH]c(=O)c1CNC(=O)c1c(C)n([C@H](C)C2CCC(NC3(C)CCOC3)CC2)c2ccccc12 (single isomer, unassigned) [149 (isomer 2)] | < 0.5 nM | 10 to 100 nM |  |  | 
CSc1cc(C)[nH]c(=O)c1CNC(=O)c1c(C)n([C@H](C)C2CCC(N3CC(OC(C)(C)C)C3)CC2)c2ncccc12 (single isomer, unassigned) [112 (isomer 1)] | < 0.5 nM |  | < 10 nM |  | 
CSc1cc(C)[nH]c(=O)c1CNC(=O)c1c(C)n([C@H](C)C2CCC(N3CC(F)C3)CC2)c2ncc(Cl)cc12 (stereo partly drawn) [Example 98, 5-chloro-1-((R)-1-(4-(3-fluoroazetidin-1-yl)cyclohexyl)ethyl)-2-methyl-N-((6-methyl-4-(methylthio)-2-oxo-1,2-dihydropyridin-3-yl)methyl)-1H-pyrrolo[2,3-b]pyridine-3-carboxamide] |  |  | < 10 nM | < 0.5 nM | 
CSc1cc(C)[nH]c(=O)c1CNC(=O)c1c(C)n([C@H](C)[C@H]2CCNC[C@@H]2F)c2ccccc12 [Example 37, 1-((R)-1-((3R,4R)-3-fluoropiperidin-4-yl)ethyl)-2-methyl-N-((6-methyl-4-(methylthio)-2-oxo-1,2-dihydropyridin-3-yl)methyl)-1H-indole-3-carboxamide] |  |  | 10 to 100 nM | < 0.5 nM | 
COC1CN(C2CCC([C@@H](C)n3c(C)c(C(=O)NCc4c(SC)cc(C)[nH]c4=O)c4cc(F)cnc43)CC2)C1 (single isomer, unassigned) [94 (isomer 1)] | < 0.5 nM | < 10 nM |  |  | 
CSc1cc(C)[nH]c(=O)c1CNC(=O)c1c(C)n([C@H](C)C2CCC(OC3COC3)CC2)c2ccccc12 (single isomer, unassigned) [137 (isomer 2)] |  | < 10 nM |  |  | IC50 (PRC2 containing wt EZH2 [3]; read-out: EZH2 (IC50); 30 pM PRC2 containing wt EZH2; 3-5 h pre-incubation): < 0.5 nM
COC1CN(C2CCC([C@@H](C)n3c(C)c(C(=O)NCc4c(SC)cc(C)[nH]c4=O)c4cc(F)cnc43)CC2)C1 (single isomer, unassigned) [94 (isomer 2)] | 0.5 to 5 nM | > 100 nM |  |  | 
CCOC1CN(C2CCC([C@@H](C)n3c(C)c(C(=O)NCc4c(SC)cc(C)[nH]c4=O)c4cccnc43)CC2)C1 (single isomer, unassigned) [91 (isomer 2)] | < 0.5 nM | 10 to 100 nM |  |  | 
CSc1cc(C)[nH]c(=O)c1CNC(=O)c1c(C)n([C@H](C)C2CCN(CC(F)(F)F)CC2)c2ncccc12 [Example 25, (R)-2-methyl-N-((6-methyl-4-(methylthio)-2-oxo-1,2-dihydropyridin-3-yl)methyl)-1-(1-(1-(2,2,2-trifluoroethyl)piperidin-4-yl)ethyl)-1H-pyrrolo[2,3-b]pyridine-3-carboxamide] |  |  | < 10 nM | < 0.5 nM | 
CSc1cc(C)[nH]c(=O)c1CNC(=O)c1c(C)n([C@H](C)C2CCN(CC(F)(F)F)CC2)c2cccc(C)c12 [Example 87, (R)-2,4-dimethyl-N-((6-methyl-4-(methylthio)-2-oxo-1,2-dihydropyridin-3-yl)methyl)-1-(1-(1-(2,2,2-trifluoroethyl)piperidin-4-yl)ethyl)-1H-indole-3-carboxamide] |  |  | < 10 nM | 0.5 to 5 nM | 
CSc1cc(C)[nH]c(=O)c1CNC(=O)c1c(C)n([C@H](C)C2CCC(N3CC(OC(F)(F)F)C3)CC2)c2ccccc12 (single isomer, unassigned) [21 (isomer 2)] | < 0.5 nM | 10 to 100 nM |  |  | 
CSc1cc(C)[nH]c(=O)c1CNC(=O)c1c(C)n([C@@H](C)c2ccc(N(C)C)cc2)c2ccccc12 [Example 47, (S)-1-(1-(4-(dimethylamino)phenyl)ethyl)-2-methyl-N-((6-methyl-4-(methylthio)-2-oxo-1,2-dihydropyridin-3-yl)methyl)-1H-indole-3-carboxamide] |  |  | > 100 nM | 0.5 to 5 nM | 
CSc1cc(C)[nH]c(=O)c1CNC(=O)c1c(C)n([C@H](C)C2OCC(NC3(C)COC3)CO2)c2ccccc12 (single isomer, unassigned) [6 (isomer 1)] | < 0.5 nM | < 10 nM |  |  | 
CSc1cc(C)[nH]c(=O)c1CNC(=O)c1c(C)n([C@H](C)C2CCC(N3CC(F)C3)CC2)c2ncncc12 (stereo partly drawn) [Example 68, 7-((R)-1-(4-(3-fluoroazetidin-1-yl)cyclohexyl)ethyl)-6-methyl-N-((6-methyl-4-(methylthio)-2-oxo-1,2-dihydropyridin-3-yl)methyl)-7H-pyrrolo[2,3-d]pyrimidine-5-carboxamide] |  |  | < 10 nM | < 0.5 nM | 
CCCC(=O)OC1CCC([C@@H](C)n2c(C)c(C(=O)NCc3c(SC)cc(C)[nH]c3=O)c3ccccc32)CC1 (single isomer, unassigned) [143 (isomer 1)] | < 0.5 nM |  | < 10 nM |  | 
CSc1cc(C)[nH]c(=O)c1CNC(=O)c1c(C)n([C@H](C)C2OCC(N3CC(C)(C)C3)CO2)c2ccccc12 (single isomer, unassigned) [78 (isomer 1)] |  | 10 to 100 nM |  | < 0.5 nM | 
COC1CN(C2CCC([C@@H](C)n3c(C)c(C(=O)NCc4c(SC)cc(C)[nH]c4=O)c4cc(Cl)cnc43)CC2)C1 (single isomer, unassigned) [106 (isomer 2)] | < 0.5 nM | 10 to 100 nM |  |  | 
CSc1cc(C)[nH]c(=O)c1CNC(=O)c1c(C)n([C@H](C)C2CCC(N3CC(F)(C4CC4)C3)CC2)c2ncccc12 (stereo partly drawn) [Example 157, 1-((R)-1-(4-(3-cyclopropyl-3-fluoroazetidin-1-yl)cyclohexyl)ethyl)-2-methyl-N-((6-methyl-4-(methylthio)-2-oxo-1,2-dihydropyridin-3-yl)methyl)-1H-pyrrolo[2,3-b]pyridine-3-carboxamide] | < 0.5 nM |  | 10 to 100 nM |  | 
Cc1cc(SC2CCC2)c(CNC(=O)c2c(C)n([C@H](C)C3CCN(CC(F)(F)F)CC3)c3ccccc23)c(=O)[nH]1 [Example 109, (R)-N-((4-(cyclobutylthio)-6-methyl-2-oxo-1,2-dihydropyridin-3-yl)methyl)-2-methyl-1-(1-(1-(2,2,2-trifluoroethyl)piperidin-4-yl)ethyl)-1H-indole-3-carboxamide] | < 0.5 nM |  | 10 to 100 nM |  | 
CSc1cc(C)[nH]c(=O)c1CNC(=O)c1c(C)n([C@H](C)C2CCC(N3CC(S(C)(=O)=O)C3)CC2)c2ccccc12 (single isomer, unassigned) [162 (isomer 1)] | < 0.5 nM | 10 to 100 nM |  |  | 
CSc1cc(C)[nH]c(=O)c1CNC(=O)c1c(C)n([C@H](C)C2CCC(N3CC(OC(C)(C)C)C3)CC2)c2ncccc12 (single isomer, unassigned) [112 (isomer 2)] | < 0.5 nM | 10 to 100 nM |  |  | 
CSc1cc(C)[nH]c(=O)c1CNC(=O)c1c(C)n([C@H](C)C23CC(NC4COC4)(C2)C3)c2ccccc12 [Example 8, (R)-2-methyl-N-((6-methyl-4-(methylthio)-2-oxo-1,2-dihydropyridin-3-yl)methyl)-1-(1-(3-(oxetan-3-ylamino)bicyclo[1.1.1]pentan-1-yl)ethyl)-1H-indole-3-carboxamide] | < 0.5 nM |  | < 10 nM |  | 
CSc1cc(C)[nH]c(=O)c1CNC(=O)c1c(C)n([C@H](C)C2CCC(OC3CC3)CC2)c2ccccc12 (stereo partly drawn) [Example 132, 1-((R)-1-(4-cyclopropoxycyclohexyl)ethyl)-2-methyl-N-((6-methyl-4-(methylthio)-2-oxo-1,2-dihydropyridin-3-yl)methyl)-1H-indole-3-carboxamide] |  |  | < 10 nM | < 0.5 nM | 

From patent publication US11459315B2, “Modulators of methyl modifying enzymes, compositions and uses thereof” (Constellation Pharmaceuticals, Inc., priority 2017, dated 2022)
